According to US20120065267A1, “COMPOSITIONS INCLUDING 3,5-L-T2 AND METHODS OF USE THEREOF” (priority 2010, published 2012):
“And” between values parts separate entries of the source, which are not always exact repeats. Equal entries are not always repeated.

Tests used:
[1] = Body weight of mice on Western Diet given low or high dose T2; assay type: in vivo
Method: (§1) This corresponds to a dosage for an 80 kg human of about 20-200 mg/day, or a low dose of about 0.2-0.3 mg/kg of body weight to a high dose of about 2-3 mg/kg of body weight. One will appreciate, however, that some subjects (e.g., subjects having very low LDL receptor function) may receive higher doses, depending on need. likewise, some subjects may receive lower doses, which again depends on need. Mice in the study were fed a standard lab chow referred to as the “Western Diet.” The overall level of fat and the saturated nature of the fat are representative diets typical in the industrialized west that are linked to risk of cardiovascular disease in humans. The formula is used primarily with genetically manipulated rodent models that are susceptible to high cholesterol and cardiovascular disease. The diet may also be useful in diet-induced obesity, diabetes, and metabolic syndrome models. High cholesterol, obesity, and diabetes are each associated increased risk for cardiovascular disease. The composition of the Western Diet is shown below. C57 is a wild-type strain, LDLr+/− are a strain carrying one functional copy of the LDLr gene, and the LDLr0 animals are total LDLr knockouts. The LDLr gene encodes for the LDL receptor protein, which is responsible for scavenging LDL with bound cholesterol from the blood and transporting it into cells. Both heterozygous and homozygous LDLr knockout animals develop very high serum cholesterol levels and are considered to be a good model for heterozygous and homozygous familial hypercholesterolemia in humans. […] LDLr knockout animals have zero LDL receptor function.

[2] = test system: C57, LDLr+/− and LDLr0 mice; assay: Blood sugar (serum glucose) in mice on Western Diet given daily oral T2; assay type: in vivo; design: Blood Sugar / Blood Sugar Ave: unit not given here; details: for Blood Sugar Ave / Blood Sugar: Western Diet
Method: as §1

[3] = test system: thyroid receptor homodimer; details: in contrast to T3; cited from earlier work
TR β gene expression = details: relative to T3; cited from earlier work
rats = details: 250 mcg/kg p.o. q.d. for 30 days, cited from earlier work
[4] = test system: growth hormone gene expression; details: cited from earlier work

## N[C@@H](Cc1cc(I)c(Oc2ccc(O)cc2)c(I)c1)C(=O)O [T2, (2S)-2-amino-3-[4-(4-hydroxyphenoxy)-3,5-diiodophenyl]propanoic acid]
[1]; LDLr0 mice, Low Dose T2 0.25 mg/kg daily oral, Day 3, individual animal, 0.25 mg/kg, in g (unit assumed)
  Body weight: 22.3 and 24.4 and 23.5
[1]; LDLr0 mice, Low Dose T2 0.25 mg/kg daily oral, Day 4, group average
  Body weight (Ave): 22.3 g
[1]; LDLr0 mice, Low Dose T2 0.25 mg/kg daily oral, Day 4, individual animal, 0.25 mg/kg, in g (unit assumed)
  Body weight: 21.2 and 22.9 and 22.8
[1]; LDLr0 mice, Low Dose T2 0.25 mg/kg daily oral, Day 5, group average
  Body weight (Ave): 22.4 g
[1]; LDLr0 mice, Low Dose T2 0.25 mg/kg daily oral, Day 5, individual animal, 0.25 mg/kg, in g (unit assumed)
  Body weight: 22.0 and 22.2 and 23.0
[1]; LDLr0 mice, Low Dose T2 0.25 mg/kg daily oral, Day 6, group average
  Body weight (Ave): 22.3 g
[1]; LDLr0 mice, Low Dose T2 0.25 mg/kg daily oral, Day 6, individual animal, 0.25 mg/kg, in g (unit assumed)
  Body weight: 22.1 and 21.7 and 23.1
[1]; LDLr0 mice, Low Dose T2 0.25 mg/kg daily oral, Day 7, group average
  Body weight (Ave): 22.2 g
[1]; LDLr0 mice, Low Dose T2 0.25 mg/kg daily oral, Day 7, individual animal, 0.25 mg/kg, in g (unit assumed)
  Body weight: 22.4 and 20.6 and 23.6
[1]; LDLr+/− mice, High Dose T2 2.5 mg/kg daily oral, Day 1, group average
  Body weight (Ave): 30.8 g
[1]; LDLr+/− mice, High Dose T2 2.5 mg/kg daily oral, Day 1, individual animal, 2.5 mg/kg, in g (unit assumed)
  Body weight: 32.8 and 31.8 and 29.8 and 31.4 and 29.2 and 29.6
[1]; LDLr+/− mice, High Dose T2 2.5 mg/kg daily oral, Day 2, group average
  Body weight (Ave): 31.3 g
[1]; LDLr+/− mice, High Dose T2 2.5 mg/kg daily oral, Day 2, individual animal, 2.5 mg/kg, in g (unit assumed)
  Body weight: 33.3 and 34.5 and 29.8 and 31.0 and 29.1 and 29.9
[1]; LDLr+/− mice, High Dose T2 2.5 mg/kg daily oral, Day 3, group average
  Body weight (Ave): 31.1 g
[1]; LDLr+/− mice, High Dose T2 2.5 mg/kg daily oral, Day 3, individual animal, 2.5 mg/kg
  Body weight: 33.1 and 33.9 and 29.8 (2×) and 30.9 and 29.3
[1]; LDLr+/− mice, High Dose T2 2.5 mg/kg daily oral, Day 4, group average
  Body weight (Ave): 29.8 g
[1]; LDLr+/− mice, High Dose T2 2.5 mg/kg daily oral, Day 4, individual animal, 2.5 mg/kg, in g (unit assumed)
  Body weight: 32.1 and 33.0 and 29.0 and 30.1 and 27.9 and 26.8
[1]; LDLr+/− mice, High Dose T2 2.5 mg/kg daily oral, Day 5, group average
  Body weight (Ave): 29.7 g
[1]; LDLr+/− mice, High Dose T2 2.5 mg/kg daily oral, Day 5, individual animal, 2.5 mg/kg, in g (unit assumed)
  Body weight: 32.3 and 32.9 and 28.9 and 30.4 and 27.6 and 26.3
[1]; LDLr+/− mice, Low Dose T2 0.25 mg/kg daily oral, Day 1, group average
  Body weight (Ave): 26.7 g
[1]; LDLr+/− mice, Low Dose T2 0.25 mg/kg daily oral, Day 1, individual animal, 0.25 mg/kg, in g (unit assumed)
  Body weight: 28.2 and 29.0 and 24.7 and 26.4 and 25.0 and 26.6
[1]; LDLr+/− mice, Low Dose T2 0.25 mg/kg daily oral, Day 2, group average
  Body weight (Ave): 28.1 g
[1]; LDLr+/− mice, Low Dose T2 0.25 mg/kg daily oral, Day 2, individual animal, 0.25 mg/kg, in g (unit assumed)
  Body weight: 29.4 and 30.6 and 26.6 and 27.8 and 26.1 and 28.2
[1]; LDLr+/− mice, Low Dose T2 0.25 mg/kg daily oral, Day 3, group average
  Body weight (Ave): 28.6 g
[1]; LDLr+/− mice, Low Dose T2 0.25 mg/kg daily oral, Day 3, individual animal, 0.25 mg/kg, in g (unit assumed)
  Body weight: 29.7 and 31.4 and 27.2 and 28.1 and 26.3 and 28.8
[1]; LDLr+/− mice, Low Dose T2 0.25 mg/kg daily oral, Day 4, group average
  Body weight (Ave): 27.6 g
[1]; LDLr+/− mice, Low Dose T2 0.25 mg/kg daily oral, Day 4, individual animal, 0.25 mg/kg, in g (unit assumed)
  Body weight: 28.8 and 30.3 and 26.2 and 27.4 and 25.8 and 27.3
[1]; LDLr+/− mice, Low Dose T2 0.25 mg/kg daily oral, Day 5, group average
  Body weight (Ave): 28.5 g
[1]; LDLr+/− mice, Low Dose T2 0.25 mg/kg daily oral, Day 5, individual animal, 0.25 mg/kg, in g (unit assumed)
  Body weight: 29.5 and 31.3 and 27.3 and 28.4 and 26.6 and 27.9
[1]; LDLr+/− mice, Low Dose T2 0.25 mg/kg daily oral, Day 6, group average
  Body weight (Ave): 29.2 g
[1]; LDLr+/− mice, Low Dose T2 0.25 mg/kg daily oral, Day 6, individual animal, 0.25 mg/kg, in g (unit assumed)
  Body weight: 30.7 and 32.4 and 28.5 and 29.1 and 26.7 and 27.9
[1]; LDLr+/− mice, Low Dose T2 0.25 mg/kg daily oral, Day 7, group average
  Body weight (Ave): 30 g
[1]; LDLr+/− mice, Low Dose T2 0.25 mg/kg daily oral, Day 7, individual animal, 0.25 mg/kg
  Body weight: 31.0 and 32.7 and 29.6 (2×) and 28.2 and 29.0
[1]; low and high dose T2, all genotypes
  effect on weight gain: did not affect
[2]; C57 mice, 1 Week High Dose T2, group average
  Blood Sugar Ave: 110.0
[2]; C57 mice, 1 Week High Dose T2, individual animals
  Blood Sugar: 74 and 158 and 106 and 120 and 92
[2]; C57 mice, 1 Week Low Dose T2, group average
  Blood Sugar Ave: 170.0
[2]; C57 mice, 1 Week Low Dose T2, individual animals
  Blood Sugar: 151 and 203 and 186 and 190 and 120
[2]; LDLr0 mice, 1 Week High Dose T2, group average
  Blood Sugar Ave: 94.0
[2]; LDLr0 mice, 1 Week High Dose T2, individual animals
  Blood Sugar: 87 and 101
[2]; LDLr0 mice, 1 Week Low Dose T2, group average
  Blood Sugar Ave: 92.0
[2]; LDLr0 mice, 1 Week Low Dose T2, individual animals
  Blood Sugar: 143 and 54 and 79
[2]; LDLr+/− mice, 1 Week High Dose T2, group average
  Blood Sugar Ave: 101.0
[2]; LDLr+/− mice, 1 Week High Dose T2, individual animals
  Blood Sugar: 108 and 99 and 112 and 94 and 113 and 80
[2]; LDLr+/− mice, 1 Week Low Dose T2, group average
  Blood Sugar Ave: 201.0
[2]; LDLr+/− mice, 1 Week Low Dose T2, individual animals
  Blood Sugar: 202 and 146 and 235 and 171 and 242 and 210
[2]; all genetic groups (C57, LDLr+/−, LDLr0), high dose T2 2.5 mg/kg daily oral, vs controls
  lowered blood sugar levels, average: 45-50%
[3]
  effect on thyroid receptor homodimer formation: no effect
TR β gene expression
  less potent than T3 in decreasing TR β gene expression: 50%
rats; compared to controls
  decrease in body weight: 13%
  decrease in hepatic fat mass: 50%
  increase in hepatic fat oxidation: 42%
  lowering of cholesterol: 18%
  lowering of serum triglycerides: 52%
rats
  heart rate, thyroid gland or heart weight, TSH, free T3, free T4, TSH response to TRH: not accompanied by an increase in heart rate
[4]
  potency relative to T3 in increasing growth hormone gene expression: 1/100
